Results from patent publication US20160123988A1, “METHOD OF TRACELESS LABELING GLYCOPROTEINS ON SURFACE AND APPLICATION THEREOF” (NATIONAL SUN YAT-SEN UNIVERSITY, priority 2014, published 2016).

Columns and labels:
[1] = molecular target: T1, fetuins (Bos taurus, UniProt P12763); assay: Labeling of fetuins by probes, biotinylation, SDS-PAGE and Western blotting with anti-biotin antibody; type: biochemical, calf; conditions: probe 40 μM, fetuins 20 μM, 37° C., 48 h; FIG. 3
T1 construct: Fetuin (from fetal calf serum) and RNase B (from bovine pancreas) were purchased from Sigma-Aldrich; purchased Sigma-Aldrich; host or cells: fetal calf serum (natural source)
T1 sequence (P12763 19-359): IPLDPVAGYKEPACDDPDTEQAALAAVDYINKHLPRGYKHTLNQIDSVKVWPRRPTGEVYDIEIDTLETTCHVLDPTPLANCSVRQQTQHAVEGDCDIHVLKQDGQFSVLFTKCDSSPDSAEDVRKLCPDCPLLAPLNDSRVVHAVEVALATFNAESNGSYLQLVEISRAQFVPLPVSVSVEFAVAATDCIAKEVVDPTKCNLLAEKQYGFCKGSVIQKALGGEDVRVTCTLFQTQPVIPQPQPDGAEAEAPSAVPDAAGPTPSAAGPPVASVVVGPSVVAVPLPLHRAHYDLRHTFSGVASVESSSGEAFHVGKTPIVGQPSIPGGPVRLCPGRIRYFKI
Protocol: A solution of fetuins (10 μM) was incubated with BA-tosyl probes 1-3 (50 μM) in PBS buffer (0.1 M, pH 8.0) at 37° C. for 48 h. Then, the unreacted BA-tosyl probes were removed by centrifugal filtration (Amicon Ultra-0.5 mL 10K) at 15,000 rpm, followed by washing five times with PBS buffer (300 μL). The resultant alkyne-tagged fetuins (11.53 μL, 26.28 μg/μL) were collected and treated with azido biotin (20 μL, 1 mM) in PBS buffer (44.47 μL, pH 8.0, 0.1 M). Then, the mixture was treated with tris(carboxyethyl)phosphine (TCEP, 0.1 M, 2 μL) and tris[(1-benzyl-1H-1,2,3-triazol-4-yl)methyl]amine (TBTA, 0.01 M, 20 μL) with gentle shaking. After homogeneous mixing, CuSO4 (0.1 M, 2 μL) was added, and the reaction mixture was shaken at RT for 12 h. The excess reactants were removed by centrifugal filtration at 15,000 rpm, and the biotinylated fetuins were obtained.
To evaluate the specificity of synthetic BA-tosyl probes, BA-tosyl 1-3, aniline-tosyl 7, and BA-alkyne 8 (40 μM) were incubated with fetuins (20 μM), blood glycoproteins carrying triantennary glycan chains with terminal N-acetylneuraminic acids, at 37° C. for 48 h. The unreacted chemical probes were then removed by centrifugal filtration or size-exclusion column chromatography to obtain the alkyne-labeled fetuins. Azido biotin was then used to form biotinylated fetuins via Cu(I)-catalyzed 1,2,3-triazole cycloaddition. […]

[2] = molecular target: T2, RNase B (Bos taurus, UniProt P61823); assay: Immobilization of RNase B on functionalized slides, read out with Con A-FITC fluorescence; type: biochemical, bovine; conditions: for Con A-FITC signal of RNase B on probe-functionalized slides: slides incubated with RNase B then treated with glycerol, compared to BA-tosyl-treated slides, FIG. 6(b), 6(c); for Con A-FITC intensity after release of BA-tosylate by polyol: RNase B on BA-tosyl slides, glycerol 10%, sorbitol 100 mM, compared to galactose 100 mM, FIG. 6(a)
T2 construct: Fetuin (from fetal calf serum) and RNase B (from bovine pancreas) were purchased from Sigma-Aldrich; purchased Sigma-Aldrich; host or cells: bovine pancreas (natural source)
T2 sequence (P61823 27-150): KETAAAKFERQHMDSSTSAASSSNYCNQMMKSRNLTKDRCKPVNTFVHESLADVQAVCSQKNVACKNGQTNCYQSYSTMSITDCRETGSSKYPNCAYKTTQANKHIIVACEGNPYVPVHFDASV
Protocol: The aforementioned azide-functionalized slide was rinsed twice with sodium phosphate buffer (25 mM, pH 8.0) and immersed in the same buffer (45 mL). To effect the Cu(I)-catalyzed 1,2,3-triazole cycloaddition, BA-tosyl 1 (or compound 7 or 8) was added to the reaction mixture to afford a final concentration of 5 mM and treated with TCEP (2 mM) and TBTA (2 mM). Then, an aqueous solution of CuSO 4 (100 mM) was added to the reaction mixture to give a final concentration of 4 mM, and the mixture was allowed to react at RT. After 12 h, the slide was washed three times with PBS and twice with distilled deionized water (ddH2O) to obtain BA-tosyl 1 (or compound 7 or 8)-functionalized slides.
Fluorescein-labeled lectins (Con A-FITC and WGA-FITC, 10 μM in PBS containing 5 mM CaCl2 and 5 mM MnCl2) were incubated with the glycoprotein microarray at RT for 1 h. Then, the slide was washed three times with PBS containing 10% glycerol and twice with ddH2O. Finally, the slide was dried under warm air and subjected to fluorescence analysis.
To quantitatively evaluate the protein-glycoprotein interactions, the lectin-glycoprotein complexes were analyzed by measuring the fluorescence intensities of the fluorescein tags. The fluorescence signals were directly detected by a NovaRay Microarray Scanner with an FITC filter, and were subsequently analyzed using ArrayVision software.
Glycoproteins in ddH2O containing 20% dimethyl sulfoxide (DMSO) were spotted onto the surface of the functionalized slide. To immobilize glycoproteins on the slides, an AD1500 arrayer (Biodot) was used to print samples of interest onto the functionalized slide with a spot volume of 20 nL under 85% relative humidity at 25° C. The protein sample was allowed to incubate at 25° C. for 12 h, and the glycoprotein solution was then removed by decanting the reaction mixture. The slide was incubated with ddH2O containing 10% glycerol for 30 min, followed by washing twice with the same solution (ddH2O with 10% glycerol). The slide was further treated with 10 mM imidazole solution (Tris buffer, 10 mM NaCl, pH 7.4) for 30 min to block unreacted BA-tosyl groups. The obtained glycoprotein micro-array was then washed three times by PBS (pH 7.4) and was ready for advanced use.
To evaluate the details of the immobilization mechanism, ribonuclease B (RNase B), carrying a single N-glycan chain composed of high mannose isomers, was spotted onto BA-tosyl-functionalized slides and allowed to incubate at 25° C. for 12 h. The slides were then individually treated with three different polyols in phosphate buffered saline (PBS) to competitively release the BA-tosylate. Glycerol (10%), galactose (100 mM), and sorbitol (100 mM) were used. […]

Compound | Western blot band of biotin-labeled fetuins (labeling of fetuin) [1] | Con A-FITC signal of RNase B on probe-functionalized slides [2] | Con A-FITC signal of RNase B on probe-functionalized slides ([2]; listed as 7) | Con A-FITC intensity after release of BA-tosylate by polyol [2]
C#CCCCOS(=O)(=O)c1cc(C=O)cc(C(=O)Nc2ccccc2)c1 [aniline-tosyl 7] | much weaker signal | very low signal intensity | nearly background-level signals | –
OCC(O)CO [glycerol] | – | – | – | twice the intensity
OC[C@@H](O)[C@@H](O)[C@H](O)[C@@H](O)CO [sorbitol] | – | – | – | twice the intensity
